PubChem BioAssay (NCI)
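Five concentrations, 48 hours, 96-well plates. Definition used: TGI = concentration required for complete inhibition of growth.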

Columns and labels:
Test in all cases: DTP human tumour cell line panel, 48 h
TK-10 renal = system: TK-10 renal
HOP-92 NSCLC = system: HOP-92 NSCLC
RPMI-8226 leukemia = system: RPMI-8226 leukemia
OVCAR-5 ovarian = system: OVCAR-5 ovarian
OVCAR-3 ovarian = system: OVCAR-3 ovarian
K-562 leukemia = system: K-562 leukemia
COLO 205 colon = system: COLO 205 colon
HL-60(TB) leukemia = system: HL-60(TB) leukemia
SNB-19 CNS = system: SNB-19 CNS
HCT-116 colon = system: HCT-116 colon
BT-549 breast = system: BT-549 breast
U251 CNS = system: U251 CNS
HCT-15 colon = system: HCT-15 colon
HOP-62 NSCLC = system: HOP-62 NSCLC
OVCAR-8 ovarian = system: OVCAR-8 ovarian
M14 melanoma = system: M14 melanoma
SN12C renal = system: SN12C renal
MOLT-4 leukemia = system: MOLT-4 leukemia
LOX IMVI melanoma = system: LOX IMVI melanoma
UACC-257 melanoma = system: UACC-257 melanoma

Structure (SMILES)	TGI (TK-10 renal)	TGI (HOP-92 NSCLC)	TGI (RPMI-8226 leukemia)	TGI (OVCAR-5 ovarian)	TGI (OVCAR-3 ovarian)	TGI (K-562 leukemia)	TGI (COLO 205 colon)	TGI (HL-60(TB) leukemia)	TGI (SNB-19 CNS)	TGI (HCT-116 colon)	TGI (BT-549 breast)	TGI (U251 CNS)	TGI (HCT-15 colon)	TGI (HOP-62 NSCLC)	TGI (OVCAR-8 ovarian)	TGI (M14 melanoma)	TGI (SN12C renal)	TGI (MOLT-4 leukemia)	TGI (LOX IMVI melanoma)	TGI (UACC-257 melanoma)
C/C(=N/NC(=O)c1ccncc1)C(F)(F)F	> 100 µM	> 100 µM	> 100 µM	> 100 µM	> 100 µM	> 100 µM	> 100 µM	> 100 µM	> 100 µM	> 100 µM	> 100 µM	> 100 µM	> 100 µM	> 100 µM	> 100 µM	> 100 µM	> 100 µM	> 100 µM	–	–
CC(=O)CCC#Cc1ccccc1C(=O)C(C)=[N+]=[N-]	> 100 µM	> 100 µM	68.3 µM	> 100 µM	> 100 µM	> 100 µM	39.6 µM	> 100 µM	> 100 µM	47.8 µM	–	> 100 µM	> 100 µM	> 100 µM	> 100 µM	> 100 µM	> 100 µM	85.4 µM	> 100 µM	> 100 µM
COC(=O)/C=C1\SC2(OC1=Nc1ccccc1)C1CC3CC(C1)CC2C3 (configuration not stated)	> 100 µM	> 100 µM	> 100 µM	> 100 µM	> 100 µM	> 100 µM	–	> 100 µM	> 100 µM	> 100 µM	> 100 µM	> 100 µM	> 100 µM	> 100 µM	> 100 µM	–	> 100 µM	> 100 µM	> 100 µM	> 100 µM
CN1C2CCC1/C(=C/c1cccc3c1OCO3)C(=O)/C2=C\c1cccc2c1OCO2	56.2 µM	98.7 µM	> 100 µM	> 100 µM	> 100 µM	–	> 100 µM	> 100 µM	–	> 100 µM	–	63.4 µM	> 100 µM	41.2 µM	> 100 µM	> 100 µM	> 100 µM	> 100 µM	> 100 µM	> 100 µM
CC(C)(C)[Si](C)(C)OCC1OC(n2cnc3c(N)ncnc32)C2OC(=S)OC12 (configuration not stated)	> 100 µM	> 100 µM	> 100 µM	86.6 µM	91.9 µM	> 100 µM	> 100 µM	> 100 µM	> 100 µM	> 100 µM	74.7 µM	68.2 µM	> 100 µM	> 100 µM	> 100 µM	> 100 µM	> 100 µM	69.3 µM	> 100 µM	> 100 µM
